Data on 32 compounds can be found in patent US8822451B2, “Modulators of ATP-binding cassette transporters” (Vertex Pharmaceuticals Incorporated, priority 2005, dated 2014).

As usually defined, the EC50 is the concentration that produces a half-maximal response.

One test has as its target T1, […]F508-CFTR (Homo sapiens, UniProt P13569, DEL508-508).
T1 construct: expressed in transfected cells
T1 sequence (P13569 with tags, fused parts or gaps DEL508-508): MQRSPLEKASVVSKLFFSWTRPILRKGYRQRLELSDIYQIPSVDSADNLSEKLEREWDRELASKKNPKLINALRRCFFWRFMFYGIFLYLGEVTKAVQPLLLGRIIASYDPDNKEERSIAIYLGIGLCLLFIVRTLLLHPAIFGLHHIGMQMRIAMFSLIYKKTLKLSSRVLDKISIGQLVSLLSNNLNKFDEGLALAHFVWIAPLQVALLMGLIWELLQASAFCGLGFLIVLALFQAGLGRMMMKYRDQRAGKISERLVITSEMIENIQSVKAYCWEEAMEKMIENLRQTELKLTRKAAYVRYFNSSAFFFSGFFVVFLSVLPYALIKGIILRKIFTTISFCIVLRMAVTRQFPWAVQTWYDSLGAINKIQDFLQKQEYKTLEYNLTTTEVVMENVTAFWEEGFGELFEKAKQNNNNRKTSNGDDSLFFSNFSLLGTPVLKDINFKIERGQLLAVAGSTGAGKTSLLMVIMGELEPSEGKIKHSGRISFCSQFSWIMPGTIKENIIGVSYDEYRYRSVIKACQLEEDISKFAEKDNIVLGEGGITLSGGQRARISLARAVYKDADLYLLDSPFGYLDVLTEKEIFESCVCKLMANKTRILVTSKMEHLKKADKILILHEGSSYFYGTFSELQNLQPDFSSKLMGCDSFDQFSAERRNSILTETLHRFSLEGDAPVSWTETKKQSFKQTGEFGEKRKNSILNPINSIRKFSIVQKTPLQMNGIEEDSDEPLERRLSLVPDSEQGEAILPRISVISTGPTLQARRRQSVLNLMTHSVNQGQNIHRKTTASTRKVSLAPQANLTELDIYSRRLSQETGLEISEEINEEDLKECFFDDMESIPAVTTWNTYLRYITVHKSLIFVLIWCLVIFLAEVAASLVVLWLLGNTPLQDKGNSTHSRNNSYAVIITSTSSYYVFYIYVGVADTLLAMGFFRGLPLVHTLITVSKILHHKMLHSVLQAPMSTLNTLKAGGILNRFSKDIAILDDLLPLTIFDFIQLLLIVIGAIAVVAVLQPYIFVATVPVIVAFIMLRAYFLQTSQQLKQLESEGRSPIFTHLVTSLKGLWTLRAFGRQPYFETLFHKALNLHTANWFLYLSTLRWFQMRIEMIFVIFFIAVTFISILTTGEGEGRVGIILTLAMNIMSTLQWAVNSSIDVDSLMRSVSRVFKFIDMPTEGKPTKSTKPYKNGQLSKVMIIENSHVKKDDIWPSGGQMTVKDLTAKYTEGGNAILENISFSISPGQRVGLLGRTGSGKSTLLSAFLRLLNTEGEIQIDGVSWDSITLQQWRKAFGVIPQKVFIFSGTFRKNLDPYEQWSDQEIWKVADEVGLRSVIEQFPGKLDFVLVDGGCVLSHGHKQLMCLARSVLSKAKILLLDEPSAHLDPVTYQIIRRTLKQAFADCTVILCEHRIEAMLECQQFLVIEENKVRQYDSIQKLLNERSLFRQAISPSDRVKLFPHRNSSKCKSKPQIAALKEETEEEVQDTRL
Description: Assay results of Table 3: ΔF508-CFTR modulation, membrane potential optical assay (assay format not stated). Format: cell-based. As to conditions: efficacy range; NIH3T3 mouse fibroblasts stably expressing […]F508-CFTR (optical assays). A digest of the protocol: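 Two VIPR II FRET voltage-dye formats in ΔF508-CFTR NIH3T3 cells yield EC50 and efficacy. Potentiator mode: 27° C.-corrected cells get compound in Cl⁻-free medium, forskolin 2-10 μM after 22 s (final Cl⁻ 28 mM). Corrector mode: compound 16 h at 37° C., activation with forskolin 10 μM plus genistein 20 μM.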
On to `CCN(CC)c1nc(C(N)=O)cc(-c2cccc(OC)c2)n1` [Compound 74], for which the Efficacy entry is recorded as “+++ (+++ corresponds to Efficacy greater than 100)”.

`COc1cccc(-c2cc(C(N)=O)nc(N)n2)c1` [Compound 191]: the Efficacy result is “+ (+ corresponds to Efficacy less than 50)”.

Consider `NC(=O)c1cc(-c2ccccc2)nc(N2CCCCC2)n1` [Compound 16], for which the Efficacy result is “++ (++ corresponds to Efficacy between 100 and 50)”.

On to `Cc1csc(-c2cc(C(N)=O)nc(N3CCCCC3)n2)c1` [Compound 70], for which the Efficacy result is recorded as “+ (+ corresponds to Efficacy less than 50)”.

Regarding `CCN(CC)c1nc(C(N)=O)cc(-c2cccc(CO)c2)n1` [Compound 158], the Efficacy entry was “++ (++ corresponds to Efficacy between 100 and 50)”.

In the case of `CCNC(=O)c1cc(-c2ccccc2)nc(N(CC)CC)n1` [Compound 91], the Efficacy result is “+++ (+++ corresponds to Efficacy greater than 100)”.

For the compound `NC(=O)c1cc(-c2ccccc2)nc(N2CCC(O)(Cc3ccccc3)CC2)n1` [Compound 143], the Efficacy result is “+ (+ corresponds to Efficacy less than 50)”.

Regarding `COc1cccc(-c2cc(C(N)=O)nc(N(C)C)n2)c1` [Compound 77], the Efficacy entry is “+ (+ corresponds to Efficacy less than 50)”.

In the case of `CCN(CC)c1nc(C(N)=O)cc(-c2cc(F)ccc2F)n1` [Compound 163], the Efficacy result is “++ (++ corresponds to Efficacy between 100 and 50)”.

For `CC(=O)C1(c2ccccc2)CCN(c2nc(C(N)=O)cc(-c3ccccc3)n2)CC1` [Compound 45], the Efficacy entry is “++ (++ corresponds to Efficacy between 100 and 50)”.

For `CCN(CC)c1nc(C(N)=O)cc(-c2cc(F)ccc2OC)n1` [Compound 133], the Efficacy entry is “++ (++ corresponds to Efficacy between 100 and 50)”.

As to `CCN(CC)c1nc(C(=O)NC)cc(-c2ccccc2)n1` [Compound 47], the Efficacy result is given as “+++ (+++ corresponds to Efficacy greater than 100)”.

As for `COc1ccc(F)cc1-c1cc(C(N)=O)nc(N2CCCCC2)n1` [Compound 137], the Efficacy result was “++ (++ corresponds to Efficacy between 100 and 50)”.

For the compound `CCN(CC)C(=O)c1cc(-c2ccccc2)nc(N(CC)CC)n1` [Compound 141], the Efficacy result is “++ (++ corresponds to Efficacy between 100 and 50)”.

As for `COc1ccc(S(=O)(=O)N2CCN(c3nc(C(N)=O)cc(-c4ccccc4)n3)CC2)cc1` [Compound 195], the Efficacy result was “++ (++ corresponds to Efficacy between 100 and 50)”.

For `CCN(CC)c1nc(C(N)=O)cc(-c2ccc(F)cc2)n1` [Compound 67], the Efficacy entry is “+++ (+++ corresponds to Efficacy greater than 100)”.

Take `CCN(CC)c1nc(C(N)=O)cc(-c2cc(Cl)ccc2Cl)n1` [Compound 225]: the Efficacy entry is “+++ (+++ corresponds to Efficacy greater than 100)”.

Take `CC(C)CN(CC(C)C)c1nc(C(N)=O)cc(-c2ccccc2)n1` [Compound 196]: the Efficacy result is “+ (+ corresponds to Efficacy less than 50)”.

With `NC(=O)c1cc(-c2ccccc2)nc(N2CCCC(CO)C2)n1` (stereo not shown) [Compound 43], the Efficacy entry was “+ (+ corresponds to Efficacy less than 50)”.

Consider `NC(=O)c1cc(-c2ccccc2)nc(N2CC=C(c3ccccc3)CC2)n1` [Compound 53], for which the Efficacy result is “++ (++ corresponds to Efficacy between 100 and 50)”.

Regarding `CNC(=O)c1cc(-c2ccccc2)nc(N2CC=CCC2)n1` [Compound 153], the Efficacy entry was “++ (++ corresponds to Efficacy between 100 and 50)”.

Consider `CCN(CC)c1nc(C(N)=O)cc(-c2ccc(OC(F)(F)F)cc2)n1` [Compound 29], for which the Efficacy entry is “++ (++ corresponds to Efficacy between 100 and 50)”.

With `CCN(CC)c1nc(C(N)=O)cc(-c2cc(OC)ccc2OC)n1` [Compound 217], the Efficacy entry is “++ (++ corresponds to Efficacy between 100 and 50)”.

For `CCN(Cc1ccccc1)c1nc(C(N)=O)cc(-c2ccccc2)n1` [Compound 50], the Efficacy entry was “+++ (+++ corresponds to Efficacy greater than 100)”.

Turning to `C#CCN(C)c1nc(C(N)=O)cc(-c2ccccc2)n1` [Compound 204], the Efficacy result is “++ (++ corresponds to Efficacy between 100 and 50)”.

For the compound `COc1cccc(-c2cc(C(N)=O)nc(N3CC=CCC3)n2)c1` [Compound 15], the Efficacy result is “++ (++ corresponds to Efficacy between 100 and 50)”.

Turning to `COc1cccc(-c2cc(C(N)=O)nc(NCC3CCCO3)n2)c1` (stereo not shown) [Compound 80], the Efficacy entry was “+ (+ corresponds to Efficacy less than 50)”.

With `CCN(CC)c1nc(C(=O)NCc2ccccc2)cc(-c2ccccc2)n1` [Compound 97], the Efficacy result was “++ (++ corresponds to Efficacy between 100 and 50)”.

Consider `NC(=O)c1cc(-c2ccc(Cl)cc2Cl)nc(N2CCCCC2)n1` [Compound 106], for which the Efficacy entry is reported as “+++ (+++ corresponds to Efficacy greater than 100)”.

For the compound `CN(CC(O)c1ccccc1)c1nc(C(N)=O)cc(-c2ccccc2)n1` (stereo not shown) [Compound 101], the Efficacy result is “+++ (+++ corresponds to Efficacy greater than 100)”.

Turning to `NC(=O)c1cc(-c2ccccc2)nc(NC2CCCC2)n1` [Compound 112], the Efficacy result is on record as “+ (+ corresponds to Efficacy less than 50)”.

As to `CC(C)CCN(C)c1nc(C(N)=O)cc(-c2ccccc2)n1` [Compound 206], the Efficacy result is “++ (++ corresponds to Efficacy between 100 and 50)”.

The same test, now with this note: potency range; NIH3T3 mouse fibroblasts stably expressing […]F508-CFTR (optical assays).
As for `CCN(CC)c1nc(C(N)=O)cc(-c2cccc(OC)c2)n1` [Compound 74], the 50% effective concentration (EC50) fell in the range of 1 to 5 µM.

`COc1cccc(-c2cc(C(N)=O)nc(N)n2)c1` [Compound 191]: the EC50 is above 5 µM.

Regarding `NC(=O)c1cc(-c2ccccc2)nc(N2CCCCC2)n1` [Compound 16], the EC50 was in the range of 1 to 5 µM.

Consider `Cc1csc(-c2cc(C(N)=O)nc(N3CCCCC3)n2)c1` [Compound 70], for which the EC50 lay within 1 to 5 µM.

As for `CCN(CC)c1nc(C(N)=O)cc(-c2cccc(CO)c2)n1` [Compound 158], the EC50 is above 5 µM.

`CCNC(=O)c1cc(-c2ccccc2)nc(N(CC)CC)n1` [Compound 91]: the EC50 fell in the range of 1 to 5 µM.

As to `NC(=O)c1cc(-c2ccccc2)nc(N2CCC(O)(Cc3ccccc3)CC2)n1` [Compound 143], the EC50 was above 5 µM.

On to `COc1cccc(-c2cc(C(N)=O)nc(N(C)C)n2)c1` [Compound 77], for which the EC50 is above 5 µM.

`CCN(CC)c1nc(C(N)=O)cc(-c2cc(F)ccc2F)n1` [Compound 163]: the half-maximal effective concentration (EC50) is below 1 µM.

On to `CC(=O)C1(c2ccccc2)CCN(c2nc(C(N)=O)cc(-c3ccccc3)n2)CC1` [Compound 45], for which the EC50 fell in the range of 1 to 5 µM.

As to `CCN(CC)c1nc(C(N)=O)cc(-c2cc(F)ccc2OC)n1` [Compound 133], the EC50 was below 1 µM.

As for `CCN(CC)c1nc(C(=O)NC)cc(-c2ccccc2)n1` [Compound 47], the concentration for a half-maximal effect (EC50) lay in the range of 1 to 5 µM.

`COc1ccc(F)cc1-c1cc(C(N)=O)nc(N2CCCCC2)n1` [Compound 137]: the EC50 was 1 to 5 µM.

Turning to `CCN(CC)C(=O)c1cc(-c2ccccc2)nc(N(CC)CC)n1` [Compound 141], the concentration for a half-maximal effect (EC50) was in the range of 1 to 5 µM.

For the compound `COc1ccc(S(=O)(=O)N2CCN(c3nc(C(N)=O)cc(-c4ccccc4)n3)CC2)cc1` [Compound 195], the EC50 is above 5 µM.

Take `CCN(CC)c1nc(C(N)=O)cc(-c2ccc(F)cc2)n1` [Compound 67]: the EC50 was in the range of 1 to 5 µM.

For the compound `CCN(CC)c1nc(C(N)=O)cc(-c2cc(Cl)ccc2Cl)n1` [Compound 225], the EC50 is below 1 µM.

Regarding `CC(C)CN(CC(C)C)c1nc(C(N)=O)cc(-c2ccccc2)n1` [Compound 196], the 50% effective concentration (EC50) was in the range of 1 to 5 µM.

Consider `NC(=O)c1cc(-c2ccccc2)nc(N2CCCC(CO)C2)n1` (stereo not shown) [Compound 43], for which the EC50 was above 5 µM.

On to `NC(=O)c1cc(-c2ccccc2)nc(N2CC=C(c3ccccc3)CC2)n1` [Compound 53], for which the 50% effective concentration (EC50) is above 5 µM.

With `CNC(=O)c1cc(-c2ccccc2)nc(N2CC=CCC2)n1` [Compound 153], the EC50 is above 5 µM.

Turning to `CCN(CC)c1nc(C(N)=O)cc(-c2ccc(OC(F)(F)F)cc2)n1` [Compound 29], the EC50 was below 1 µM.

Consider `CCN(CC)c1nc(C(N)=O)cc(-c2cc(OC)ccc2OC)n1` [Compound 217], for which the EC50 is below 1 µM.

`CCN(Cc1ccccc1)c1nc(C(N)=O)cc(-c2ccccc2)n1` [Compound 50]: the EC50 is below 1 µM.

For `C#CCN(C)c1nc(C(N)=O)cc(-c2ccccc2)n1` [Compound 204], the EC50 was 1 to 5 µM.

For `COc1cccc(-c2cc(C(N)=O)nc(N3CC=CCC3)n2)c1` [Compound 15], the EC50 is above 5 µM.

For the compound `COc1cccc(-c2cc(C(N)=O)nc(NCC3CCCO3)n2)c1` (stereo not shown) [Compound 80], the EC50 is above 5 µM.

Turning to `CCN(CC)c1nc(C(=O)NCc2ccccc2)cc(-c2ccccc2)n1` [Compound 97], the EC50 is above 5 µM.

For the compound `NC(=O)c1cc(-c2ccc(Cl)cc2Cl)nc(N2CCCCC2)n1` [Compound 106], the EC50 was in the range of 1 to 5 µM.

As for `CN(CC(O)c1ccccc1)c1nc(C(N)=O)cc(-c2ccccc2)n1` (stereo not shown) [Compound 101], the EC50 is above 5 µM.

For `NC(=O)c1cc(-c2ccccc2)nc(NC2CCCC2)n1` [Compound 112], the concentration for a half-maximal effect (EC50) was above 5 µM.

For `CC(C)CCN(C)c1nc(C(N)=O)cc(-c2ccccc2)n1` [Compound 206], the EC50 was in the range of 1 to 5 µM.
